PubChem BioAssay AID1981 (Southern Research Specialized Biocontainment Screening …, 2009)

Tested on: S. Typhimurium PhoP-promoter GFP reporter counterscreen, fluorescence, 4 h
Assay: S. Typhimurium GFP fluorescence dose response in modified counterscreen for PhoP regulon inhibitor project (AID 1981)

| SMILES | IC50 |
| --- | --- |
| O=C(C[n+]1cccc(CNC(=O)c2ccc(OC(F)F)cc2)c1)Nc1ccc(SC(F)F)cc1 | 96.3 µM |
| COc1cc(/C=C/[N+](=O)[O-])ccc1O | 65.1 µM |
| O=C(NC(=S)NNC(=O)c1ccccc1O)c1ccco1 | 41.8 µM |
| Clc1cc(Br)ccc1OCCCNCc1ccccc1 | 83.4 µM |
| CCCCOc1ccc(Br)cc1CSC(=N)N | 97.8 µM |
| CC[n+]1c(/C=C/N(C)c2ccccc2)n(-c2ccccc2)c2ccc(-c3nc4ccccc4s3)cc21 | 21.8 µM |
| O=[N+]([O-])c1cc(CN2CCOCC2)c2cccnc2c1O | 64.3 µM |
| Oc1c(C(Nc2nc3ccccc3s2)c2ccco2)ccc2cccnc12 (configuration not stated) | 57 µM |
| Oc1c(C(Nc2ccccn2)c2ccccn2)ccc2cccnc12 (configuration not stated) | 55.2 µM |
| CCCCCCCCCCCCCCCCn1cc[n+](C)c1 | 13 µM |
| O=C1C(=O)c2ccccc2-c2ccccc21 | 87.3 µM |
| Cc1ccc(C(=O)O)cc1N=Cc1cc(Br)cc(Br)c1O | 105 µM |
| Cc1ccc(S(=O)(=O)/N=C2/C=C(Sc3ncn[nH]3)C(=O)c3ccccc32)c(C)c1 | 56.1 µM |
| COc1ccc(C(C[N+](=O)[O-])n2nc(C)cc2C)cc1 (configuration not stated) | 21.6 µM |
| Cc1cccc(Nc2cc(C)c3c(O)cccc3n2)c1C | 82.7 µM |
| N=c1n(CC(=O)c2ccc(Br)s2)c2ccccc2n1Cc1ccccc1 | 131 µM |
| COc1cc(Cc2cc(N)nc(N)n2)cc(OC)c1OC | 1 µM |
| O=C(NC(CO)Cc1ccc([N+](=O)[O-])cc1)C(Cl)Cl (configuration not stated) | 9.48 µM |
| CC(=O)NC(c1ccc(Cl)cc1Cl)c1ccc2cccnc2c1O (configuration not stated) | 40.2 µM |

| SMILES | IC50 |
| --- | --- |
| CCCCCN=C(N)N/N=C/c1c[nH]c2ccc(OC)cc12 | 40.4 µM |
| CC(=O)NC(c1ccc2ccccc2c1)c1ccc2cccnc2c1O (configuration not stated) | 46.2 µM |
| Cc1nnc(N/N=C/c2ccccn2)[nH]c1=O | 21.2 µM |
| CO[C@H]1C=CO[C@@]2(C)Oc3c(C)c(O)c4c(O)c(c(C=NN5CCN(C)CC5)c(O)c4c3C2=O)NC(=O)C(C)=CC=C[C@H](C)[C@H](O)[C@@H](C)[C@@H](O)[C@@H](C)[C@H](OC(C)=O)[C@@H]1C | 11.2 µM |
| O=c1[nH]c2ccccc2n2c(=S)[nH]nc12 | 29.1 µM |
| CCCCCCCCCCOC(=O)Cn1c(COc2ccccc2)[n+](C)c2ccccc21 | 64.3 µM |
| O=C(N/N=C/c1cc(O)ccc1Br)c1cccnc1 | 43.5 µM |
| CCCCCCCCCCOC(=O)Cn1c(COc2ccccc2OC)[n+](C)c2ccccc21 | 37 µM |
| O=C(N[C@H](CO)[C@H](O)c1ccc([N+](=O)[O-])cc1)C(Cl)Cl | 8.46 µM |
| Oc1ccc(N2CCN(Cc3ccc(OCCCN4CCCCC4)cc3)CC2)cc1 | 110 µM |
| O=C(N/N=C/c1ccc([N+](=O)[O-])s1)C(O)c1ccccc1 (configuration not stated) | 68.4 µM |
| O=S(=O)(Nc1cc(Sc2cccc3cccnc23)c(O)c2ccccc12)c1ccc(F)cc1 | 57.2 µM |
| C=CC1=C(C(=O)O)N2C(=O)[C@@H](NC(=O)/C(=N/OCC(=O)O)c3csc(N)n3)[C@H]2SC1 | 17.9 µM |
| CCCCCCCOC(=O)C[N+](C)(C)CCOC1CC2CCC1(C)C2(C)C (configuration not stated) | 40.6 µM |
| S=c1nc(C2CCCCC2)[nH][nH]1 | 136 µM |
| CC1COc2c(N3CCN(C)CC3)c(F)cc3c(=O)c(C(=O)O)cn1c23 (configuration not stated) | 0.56 µM |
| Cc1ccc(Nc2nc(NCc3ccco3)c3ccccc3n2)cc1 | 23.6 µM |
| OC(c1cc(-c2ccc(C(F)(F)F)cc2)nc(C(F)(F)F)c1)C1CCCCN1 (configuration not stated) | 42.2 µM |
| c1ccc(-c2nnc(-c3ccccn3)nc2NC2CCCCC2)cc1 | 148 µM |

| SMILES | IC50 |
| --- | --- |
| O=S(=O)(Nc1cc(Sc2ncn[nH]2)c(O)c2ccccc12)c1ccccc1 | 149 µM |
| Fc1ccccc1CCNCc1ccccc1 | 49.2 µM |
| CN1CCN(c2cc3c(cc2F)c(=O)c(C(=O)O)cn3CCF)CC1 | 0.51 µM |
| O=[N+]([O-])c1cc(Cl)c2cccnc2c1O | 1.96 µM |
| Oc1cccc(C=NCc2ccccc2)c1O | 109 µM |
| Oc1cccc(Nc2nc(NCC3CCCO3)c3ccccc3n2)c1 (configuration not stated) | 148 µM |
| CCCCCc1ccc(OCCOCCn2c[n+](C)c3ccccc32)c(CCCCC)c1 | 55 µM |
| CCN1CCN(C(c2ccc(C(F)(F)F)cc2)c2ccc3cccnc3c2O)CC1 (configuration not stated) | 46.1 µM |
| Oc1ccc(CN2CCc3ccccc3C2)c2cccnc12 | 30.5 µM |
| N=c1n(Cc2ccccc2)c2ccccc2n1CC(O)COc1ccc(Cl)cc1Cl (configuration not stated) | 49.4 µM |
| COc1c(N2CCN(C(=S)Nc3ccc(F)cc3)C(C)C2)c(F)cc2c(=O)c(C(=O)O)cn(C3CC3)c12 (configuration not stated) | 2.68 µM |
| O=C(Nc1nnc(-c2cccs2)o1)c1cccc(Oc2ccccc2)c1 | 54.6 µM |
| COC1C(OC(=O)c2ccc(C)[nH]2)C(O)C(Oc2ccc3c(O)c(NC(=O)c4ccc(O)c(CC=C(C)C)c4)c(=O)oc3c2Cl)OC1(C)C (configuration not stated) | 19.3 µM |
| CO/N=C(/C(=O)N[C@@H]1C(=O)N2C(C(=O)O)=CCS[C@H]12)c1cnc(N)s1 | 23.6 µM |
| C#CCOCCOCCOCCNc1nc(N2CCN(C(=O)CCCCCCCCCCNC(=O)[C@H]([C@@H](C)CC)n3cc(CCCCN=C(N)N)nn3)CC2)nc(N2CCN(C(=O)CCCCCCCCCCNC(=O)[C@H]([C@@H](C)CC)n3cc(CCCCN=C(N)N)nn3)CC2)n1 | 61.1 µM |
| Oc1cccc(/C=N/Nc2ccc(Cl)nn2)c1O | 24.4 µM |
| CN(C)C1C(=O)C(C(N)=O)=C(O)C2(O)C(=O)C3=C(O)c4c(O)cccc4C(C)(O)C3C(O)C12 (configuration not stated) | 1.35 µM |
| O=C(CN1CCCC1)N/N=C/c1c(O)ccc2ccccc12 | 70.6 µM |
| CNC[C@H](CC1CCCCC1)NC[C@H](Cc1ccccc1)NCCC12CC3CC(CC(C3)C1)C2 | 19.6 µM |
